Among the data in ChEMBL document CHEMBL4819028, “Structures and Biosynthetic Pathway of Coprisamides C and D, 2-Alkenylcinnamic Acid-Containing Peptides from the Gut Bacterium of the Carrion Beetle Silpha perforata” (J Nat Prod, 2021) are MIC50, fold change (FC) and Activity values, retold here.

The structures appear in SMILES notation. Values after ≈ are worked out from the molar mass of the structure shown. Active and inactive are the calls of the source. The rule behind the calls is not given here.

Series [1] relates to Mycobacterium tuberculosis. In words: Antitubercular activity against Mycobacterium tuberculosis mc2 6230 assessed as inhibition of bacterial growth incubated for 5 days by REMA. Conditions: mc2 6230, 120 h, time 5 day. Format: functional.
The target of series [2] is NAD(P)H dehydrogenase [quinone] 1 (Mus musculus) (UniProt Q64669). Description: Induction of quinone reductase activity in mouse Hepa1c1c7 cells at 10 uM incubated for 24 hrs by MTT based assay. The class given is cell-based. Conditions: filed as activator. (Tetrazolium dyes change colour on reduction, which living cells bring about.)
Another series has as its system Klebsiella pneumoniae. Description: Antibacterial activity against Klebsiella pneumoniae. The class given is functional, organism-based.
The next series deals with Candida albicans. Description: […] activity against Candida albicans. The class given is functional, organism-based.
The test system of another series is Enterococcus faecalis. In words: Antibacterial activity against Enterococcus faecalis. The class given is functional, organism-based.
The next series concerns Salmonella enterica. In words: Antibacterial activity against Salmonella enterica. The class given is functional, organism-based.
The next series relates to Escherichia coli. Description: Antibacterial activity against Escherichia coli. The class given is functional, organism-based.
In series [3] the test system is Trichophyton mentagrophytes. In words: […] activity against Trichophyton mentagrophytes. Format: functional, organism-based.
A short description of series [4]: Cytotoxicity against mouse Hepa1c1c7 cells at higher concentration. Format: cell-based.
A further series deals with Aspergillus fumigatus. In words: […] activity against Aspergillus fumigatus. Format: functional, organism-based.
Another series deals with Staphylococcus aureus. Description: Antibacterial activity against Staphylococcus aureus. The class given is functional, organism-based.
For another series, the system named is Enterococcus faecium. In words: Antibacterial activity against Enterococcus faecium. The class given is functional, organism-based.
The next series concerns Trichophyton rubrum. In words: […] activity against Trichophyton rubrum. The class given is functional, organism-based.

Chain of NAD(P)H dehydrogenase [quinone] 1 (Mus musculus) (Q64669 whole entry): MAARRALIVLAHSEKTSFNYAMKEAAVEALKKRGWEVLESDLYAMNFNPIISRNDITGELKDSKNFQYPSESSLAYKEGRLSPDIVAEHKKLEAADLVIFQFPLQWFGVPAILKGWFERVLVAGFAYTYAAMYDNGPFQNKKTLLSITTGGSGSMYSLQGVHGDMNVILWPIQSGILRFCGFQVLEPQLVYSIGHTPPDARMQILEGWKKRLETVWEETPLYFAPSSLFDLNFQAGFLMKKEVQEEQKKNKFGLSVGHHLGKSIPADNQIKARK

For the molecule `CC[C@@H](CO)NCCN[C@@H](CC)CO` [ETHAMBUTOL], in [1], the MIC50 is 0.83 µg/mL (≈ 4.06 µM).

On to `NNC(=O)c1ccncc1` [ISONIAZID], for which, in [1], the MIC50 came to 0.03 µg/mL (≈ 0.219 µM).

The molecule `C/C=C/C=C/C/C=C\c1ccccc1/C=C/C(=O)NC(C)C(=O)N[C@@H]1COC(=O)[C@H]([C@H](C)C(=O)O)NC(=O)[C@H](CNC(=O)C(N)C(C)C)NC(=O)[C@H](C(C)C)NC(=O)[C@@H](CC(C)C)NC1=O` (some centres undefined) registered a fold change (FC) in series [2] of 2.6.

In turn, `C/C=C/C=C/C=C/c1ccccc1/C=C/C(=O)NC(C)C(=O)N[C@@H]1COC(=O)[C@H]([C@H](C)C(=O)O)NC(=O)[C@H](CNC(=O)C(N)C(C)C)NC(=O)[C@H](C(C)C)NC(=O)[C@@H](CC(C)C)NC1=O` (some centres undefined) yielded a fold change (FC) in series [2] of 2.1.

For the molecule `CC(C)C/C=C/C=C/c1ccccc1/C=C/C(=O)N[C@H](C)C(=O)N[C@@H]1COC(=O)[C@H]([C@H](C)C(=O)O)NC(=O)[C@H](CNC(=O)[C@@H](N)C(C)C)NC(=O)[C@H](C(C)C)NC(=O)[C@@H](CC(C)C)NC1=O`, the result (with Klebsiella pneumoniae; in the series on Candida albicans; with Enterococcus faecalis; with Salmonella enterica; in the series with Escherichia coli; in series [3]) was inactive. In addition, the outcome with Aspergillus fumigatus, with Staphylococcus aureus, in the series with Enterococcus faecium and in the series with Trichophyton rubrum was inactive. In series [2], this molecule gave a fold change (FC) of 2.3. Besides, the Activity result in series [4] is “Toxic”.

On to `CC(C)/C=C/C/C=C\c1ccccc1/C=C/C(=O)N[C@H](C)C(=O)N[C@@H]1COC(=O)[C@H]([C@H](C)C(=O)O)NC(=O)[C@H](CNC(=O)[C@@H](N)C(C)C)NC(=O)[C@H](C(C)C)NC(=O)[C@@H](CC(C)C)NC1=O`, for which the outcome (with Klebsiella pneumoniae; in the series with Candida albicans; with Enterococcus faecalis; in the series on Salmonella enterica; with Escherichia coli; in series [3]) was inactive. Also, the result in the series with Aspergillus fumigatus, in the series with Staphylococcus aureus, in the series on Enterococcus faecium and in the series on Trichophyton rubrum was inactive. The molecule also yielded a fold change (FC) in series [2] of 2.4. Moreover, the MIC50 in [1] came to 82.8 µg/mL (≈ 89.7 µM). The Activity entry in [4] was “Toxic”.

The MIC50 is an inhibitory concentration at the 50% level, which refers to growth in some studies and to a panel of isolates in others.
